According to patent US20260068885A1, “HERBICIDAL COMPOSITIONS” (BAYER AKTIENGESELLSCHAFT, priority 2022, published 2026):

Assays:
Experiment in all cases: Post-emergence herbicidal action against harmful plants (greenhouse)
Type in all cases: in vivo
[1] = test system: Abutilon theophrasti (ABUTH)
Procedure: (§1) Seeds of monocotyledonous and dicotyledonous weed and crop plants are laid out in sandy loam soil in wood-fibre pots, covered with soil and cultivated in a greenhouse under good growth conditions. 2 to 3 weeks after sowing, the test plants are treated at the one-leaf stage. The compounds of the invention, formulated in the form of wettable powders (WP) or as emulsion concentrates (EC), are then sprayed onto the green parts of the plants in the form of an aqueous suspension or emulsion at a water application rate equivalent to 600 to 800 l/ha, with addition of 0.2% wetting agent. After the test plants have been […], the action of the preparations is assessed visually in comparison to untreated controls (herbicidal action in percent (%): 100% activity=the plants have died, 0% activity=like control plants). […] The tables below illustrate, in an illustrative manner, the post-emergence herbicidal action of the compounds of the invention, the herbicidal activity being stated in percent.
(§2) In the tables that follow, the abbreviations mean the following: • E: means the synergism value to be expected according to the Colby formula. • Δ SYN: means the difference between the actual and expected synergism value. • DAT: means days after treatment.

Cyperus iria (CYPIR) = test system: Cyperus iria (CYPIR)
Procedure: as §1, §2

[2] = test system: Erigeron bonariensis (ERIBO)
Procedure: as §1, §2

Setaria viridis (SETVI) = test system: Setaria viridis (SETVI)
Procedure: as §1, §2

Solanum nigrum (SOLNI) = test system: Solanum nigrum (SOLNI)
Procedure: as §1, §2

[3] = test system: Brachiaria platyphylla (BRAPP)
Procedure: (§3) Seeds of monocotyledonous and dicotyledonous weed and crop plants are laid out in sandy loam soil in wood-fibre pots, covered with soil and cultivated in a greenhouse under good growth conditions. 2 to 3 weeks after sowing, the test plants are treated at the one-leaf stage. The compounds of the invention, formulated in the form of wettable powders (WP) or as emulsion concentrates (EC), are then sprayed onto the green parts of the plants in the form of an aqueous suspension or emulsion at a water application rate equivalent to 600 to 800 l/ha, with addition of 0.2% wetting agent. After the test plants have been left to stand in the greenhouse under optimal growth conditions for about 3 weeks, the action of the preparations is assessed visually in comparison to untreated controls (herbicidal action in percent (%): 100% activity=the plants have died, 0% activity=like control plants). […] The tables below illustrate, in an illustrative manner, the post-emergence herbicidal action of the compounds of the invention, the herbicidal activity being stated in percent.
as §2

Emex australis (EMEAU) = test system: Emex australis (EMEAU)
Procedure: as §3, §2

[4] = test system: Euphorbia heterophylla (EPHHL); settings: for Herbicidal efficacy: EPHHL 21 DAT
Procedure: as §3, §2

[5] = test system: Sorghum halepense (SORHA)
Procedure: as §3, §2

[6] = test system: Xanthium strumarium (XANST)
Procedure: as §3, §2

[7] = test system: Pharbitis purpurea (PHBPU)
[8] = test system: Polygonum convolvulus (POLCO)
[9] = test system: Xanthium strumarium (XANST); remark: listed apart in the source
[10] = application rate 2 g a.i./ha, 21 DAT

Cc1nnc(NC(=O)c2ccc(C(F)(F)F)c([S@+](C)[O-])c2Cl)o1 [I-5]
Herbicidal efficacy ([1]; ABUTH 10 DAT, 0.5 g a.i./ha): 20% | Herbicidal efficacy ([1]; ABUTH 10 DAT, 2 g a.i./ha): 60% | Herbicidal efficacy ([1]; ABUTH 21 DAT, 0.5 g a.i./ha): 10% | Herbicidal efficacy ([1]; ABUTH 21 DAT, 2 g a.i./ha): 30% | Herbicidal efficacy (Cyperus iria (CYPIR); CYPIR 10 DAT, 0.5 g a.i./ha): 50% | Herbicidal efficacy (Cyperus iria (CYPIR); CYPIR 10 DAT, 2 g a.i./ha): 80% | Herbicidal efficacy (Cyperus iria (CYPIR); CYPIR 21 DAT, 0.5 g a.i./ha): 40% | Herbicidal efficacy (Cyperus iria (CYPIR); CYPIR 21 DAT, 2 g a.i./ha): 60% | Herbicidal efficacy ([2]; ERIBO 10 DAT, 0.5 g a.i./ha): 0% | Herbicidal efficacy ([2]; ERIBO 10 DAT, 2 g a.i./ha): 10% | Herbicidal efficacy ([2]; ERIBO 21 DAT, 0.5 g a.i./ha): 0% | Herbicidal efficacy ([2]; ERIBO 21 DAT, 2 g a.i./ha): 0% | Herbicidal efficacy [%] against ERIBO 21 DAT [2, 10]: 40% | Herbicidal efficacy (Setaria viridis (SETVI); SETVI 10 DAT, 0.5 g a.i./ha): 20% | Herbicidal efficacy (Setaria viridis (SETVI); SETVI 10 DAT, 2 g a.i./ha): 40% | Herbicidal efficacy (Setaria viridis (SETVI); SETVI 21 DAT, 0.5 g a.i./ha): 10% | Herbicidal efficacy (Setaria viridis (SETVI); SETVI 21 DAT, 2 g a.i./ha): 20% | Herbicidal efficacy (Solanum nigrum (SOLNI); SOLNI 10 DAT, 0.5 g a.i./ha): 20% | Herbicidal efficacy (Solanum nigrum (SOLNI); SOLNI 10 DAT, 2 g a.i./ha): 60% | Herbicidal efficacy (Solanum nigrum (SOLNI); SOLNI 21 DAT, 0.5 g a.i./ha): 0% | Herbicidal efficacy (Solanum nigrum (SOLNI); SOLNI 21 DAT, 2 g a.i./ha): 20% | Herbicidal efficacy [%] against SOLNI 10 DAT (Solanum nigrum (SOLNI); application rate 0.5 g a.i./ha): 20% | Herbicidal efficacy [%] against SOLNI 21 DAT (Solanum nigrum (SOLNI); application rate 0.5 g a.i./ha): 0% | Herbicidal efficacy [%] against SOLNI 10 DAT (Solanum nigrum (SOLNI); application rate 2 g a.i./ha): 60% | Herbicidal efficacy [%] against SOLNI 21 DAT (Solanum nigrum (SOLNI); application rate 2 g a.i./ha): 20% | Herbicidal efficacy ([3]; BRAPP 10 DAT, 0.5 g a.i./ha): 0% | Herbicidal efficacy ([3]; BRAPP 10 DAT, 2 g a.i./ha): 30% | Herbicidal efficacy ([3]; BRAPP 21 DAT, 0.5 g a.i./ha): 0% | Herbicidal efficacy ([3]; BRAPP 21 DAT, 2 g a.i./ha): 0% | Herbicidal efficacy (Emex australis (EMEAU); EMEAU 10 DAT, 0.5 g a.i./ha): 20% | Herbicidal efficacy (Emex australis (EMEAU); EMEAU 10 DAT, 2 g a.i./ha): 20% | Herbicidal efficacy (Emex australis (EMEAU); EMEAU 21 DAT, 0.5 g a.i./ha): 0% | Herbicidal efficacy (Emex australis (EMEAU); EMEAU 21 DAT, 2 g a.i./ha): 10% | Herbicidal efficacy [%] against EMEAU 10 DAT (Emex australis (EMEAU); application rate 0.5 g a.i./ha, 10 DAT): 30% | Herbicidal efficacy [%] against EMEAU 21 DAT (Emex australis (EMEAU); application rate 0.5 g a.i./ha): 20% | Herbicidal efficacy [%] against EMEAU 21 DAT (Emex australis (EMEAU); application rate 2 g a.i./ha): 88% | Herbicidal efficacy ([4]; 0.5 g a.i./ha): 0% | Herbicidal efficacy ([4]; 2 g a.i./ha): 10% | Herbicidal efficacy [%] against EPHHL 21 DAT ([4]; application rate 0.5 g a.i./ha): 30% | Herbicidal efficacy [%] against EPHHL 21 DAT ([4]; application rate 2 g a.i./ha): 40% | Herbicidal efficacy [%] against SORHA 10 DAT ([5]; application rate 0.5 g a.i./ha): 0% | Herbicidal efficacy [%] against SORHA 21 DAT ([5]; application rate 0.5 g a.i./ha): 0% | Herbicidal efficacy [%] against SORHA 10 DAT ([5]; application rate 2 g a.i./ha): 20% | Herbicidal efficacy [%] against SORHA 10 DAT ([5]; application rate 2 g a.i./ha, table with flufenoximacil): 90% | Herbicidal efficacy [%] against SORHA 21 DAT ([5]; application rate 2 g a.i./ha): 10% | Herbicidal efficacy [%] against XANST 21 DAT ([6]; application rate 0.5 g a.i./ha): 10% | Herbicidal efficacy [%] against XANST 21 DAT ([6]; application rate 2 g a.i./ha): 20% | Herbicidal efficacy ([7]; PHBPU 10 DAT, 0.5 g a.i./ha): 0% | Herbicidal efficacy ([7]; PHBPU 10 DAT, 2 g a.i./ha): 20% | Herbicidal efficacy ([7]; PHBPU 21 DAT, 0.5 g a.i./ha): 0% | Herbicidal efficacy ([7]; PHBPU 21 DAT, 2 g a.i./ha): 0% | Herbicidal efficacy [%] against PHBPU 21 DAT ([7]; application rate 0.5 g a.i./ha, 21 DAT): 40% | Herbicidal efficacy ([8]; POLCO 10 DAT, 0.5 g a.i./ha): 0% | Herbicidal efficacy ([8]; POLCO 10 DAT, 2 g a.i./ha): 0% | Herbicidal efficacy ([8]; POLCO 21 DAT, 0.5 g a.i./ha): 0% | Herbicidal efficacy ([8]; POLCO 21 DAT, 2 g a.i./ha): 0% | Herbicidal efficacy [%] against POLCO 21 DAT [8, 10]: 30% | Herbicidal efficacy [%] against XANST 10 DAT ([9]; application rate 0.5 g a.i./ha): 20% | Herbicidal efficacy [%] against XANST 21 DAT ([9]; application rate 0.5 g a.i./ha, 21 DAT, table with flufenoximacil): 30% | Herbicidal efficacy [%] against XANST 10 DAT ([9]; application rate 2 g a.i./ha): 30%

CCn1ncc(C(=O)c2ccc(S(C)(=O)=O)c(COCC(F)(F)F)c2Cl)c1OC(=O)c1cn(C)nc1C [fenpyrazone]
Herbicidal efficacy ([1]; ABUTH 21 DAT, 20 g a.i./ha): 30% | Herbicidal efficacy (Cyperus iria (CYPIR); CYPIR 10 DAT, 5 g a.i./ha): 30% | Herbicidal efficacy (Cyperus iria (CYPIR); CYPIR 10 DAT, 20 g a.i./ha): 20% | Herbicidal efficacy (Cyperus iria (CYPIR); CYPIR 21 DAT, 5 g a.i./ha): 30% | Herbicidal efficacy (Cyperus iria (CYPIR); CYPIR 21 DAT, 20 g a.i./ha): 10% | Herbicidal efficacy ([2]; ERIBO 21 DAT, 5 g a.i./ha): 80% | Herbicidal efficacy ([2]; ERIBO 21 DAT, 20 g a.i./ha): 80% | Herbicidal efficacy (Setaria viridis (SETVI); SETVI 10 DAT, 5 g a.i./ha): 30% | Herbicidal efficacy (Setaria viridis (SETVI); SETVI 10 DAT, 20 g a.i./ha): 50% | Herbicidal efficacy (Setaria viridis (SETVI); SETVI 21 DAT, 5 g a.i./ha): 20% | Herbicidal efficacy (Setaria viridis (SETVI); SETVI 21 DAT, 20 g a.i./ha): 20% | Herbicidal efficacy ([3]; BRAPP 10 DAT, 5 g a.i./ha): 30% | Herbicidal efficacy ([3]; BRAPP 10 DAT, 20 g a.i./ha): 75% | Herbicidal efficacy ([3]; BRAPP 21 DAT, 5 g a.i./ha): 10% | Herbicidal efficacy ([3]; BRAPP 21 DAT, 20 g a.i./ha): 20% | Herbicidal efficacy (Emex australis (EMEAU); EMEAU 21 DAT, 20 g a.i./ha): 0% | Herbicidal efficacy [%] against SORHA 10 DAT ([5]; application rate 5 g a.i./ha): 20% | Herbicidal efficacy [%] against SORHA 21 DAT ([5]; application rate 5 g a.i./ha): 10% | Herbicidal efficacy [%] against SORHA 10 DAT ([5]; application rate 20 g a.i./ha): 30% | Herbicidal efficacy [%] against SORHA 21 DAT ([5]; application rate 20 g a.i./ha): 20% | Herbicidal efficacy [%] against XANST 21 DAT ([6]; application rate 20 g a.i./ha): 70% | Herbicidal efficacy ([7]; PHBPU 10 DAT, 5 g a.i./ha): 0% | Herbicidal efficacy ([7]; PHBPU 21 DAT, 5 g a.i./ha): 0% | Herbicidal efficacy ([8]; POLCO 10 DAT, 5 g a.i./ha): 0% | Herbicidal efficacy ([8]; POLCO 21 DAT, 5 g a.i./ha): 0% | Herbicidal efficacy ([8]; POLCO 21 DAT, 20 g a.i./ha): 10% | Herbicidal efficacy [%] against XANST 10 DAT ([9]; application rate 20 g a.i./ha): 88%
